Test results published in patent US20250129027A1 (APOGEE PHARMACEUTICALS, INC., priority 2023, published 2025).
pIC50: −log10 of the molar value.

Tests used:
human recombinant FAAH = human recombinant FAAH (Homo sapiens (Human), UniProt O00519); assay: In vitro inhibition of FAAH activity (fluorescent inhibitor screening kit, AMC arachidonoyl amide); assay type: biochemical; conditions: human recombinant FAAH; read-out: Inhibition on FAAH activity (IC50)
Summary of the method: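 Fluorogenic kit assay: AMC arachidonoyl amide is cleaved by human recombinant FAAH, read at 340-360/450-465 nm. Percent inhibition versus non-treated control; IC50 values derived from multiple compound concentrations where tested.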

human recombinant MAGL = human recombinant MAGL (Homo sapiens (Human), UniProt Q99685); assay: In vitro inhibition of MAGL activity (inhibitor screening kit, 4-nitrophenylacetate); assay type: biochemical; conditions: human recombinant MAGL
Summary of the method: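 Colorimetric kit assay: recombinant human MAGL hydrolyses 4-nitrophenylacetate to 4-nitrophenol, read by absorbance at 405-412 nm. Inhibition given as percentage of signal in treated versus untreated MAGL control.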

Chain of human recombinant MAGL (Q99685 whole entry): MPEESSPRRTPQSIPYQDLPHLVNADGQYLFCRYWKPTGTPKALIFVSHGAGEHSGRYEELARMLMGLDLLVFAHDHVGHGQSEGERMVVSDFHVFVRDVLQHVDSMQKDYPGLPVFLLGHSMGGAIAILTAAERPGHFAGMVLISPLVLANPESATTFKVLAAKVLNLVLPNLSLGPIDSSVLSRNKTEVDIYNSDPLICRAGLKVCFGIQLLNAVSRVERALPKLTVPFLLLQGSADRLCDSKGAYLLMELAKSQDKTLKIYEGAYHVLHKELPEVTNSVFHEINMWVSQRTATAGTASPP
Chain of human recombinant FAAH (O00519 whole entry): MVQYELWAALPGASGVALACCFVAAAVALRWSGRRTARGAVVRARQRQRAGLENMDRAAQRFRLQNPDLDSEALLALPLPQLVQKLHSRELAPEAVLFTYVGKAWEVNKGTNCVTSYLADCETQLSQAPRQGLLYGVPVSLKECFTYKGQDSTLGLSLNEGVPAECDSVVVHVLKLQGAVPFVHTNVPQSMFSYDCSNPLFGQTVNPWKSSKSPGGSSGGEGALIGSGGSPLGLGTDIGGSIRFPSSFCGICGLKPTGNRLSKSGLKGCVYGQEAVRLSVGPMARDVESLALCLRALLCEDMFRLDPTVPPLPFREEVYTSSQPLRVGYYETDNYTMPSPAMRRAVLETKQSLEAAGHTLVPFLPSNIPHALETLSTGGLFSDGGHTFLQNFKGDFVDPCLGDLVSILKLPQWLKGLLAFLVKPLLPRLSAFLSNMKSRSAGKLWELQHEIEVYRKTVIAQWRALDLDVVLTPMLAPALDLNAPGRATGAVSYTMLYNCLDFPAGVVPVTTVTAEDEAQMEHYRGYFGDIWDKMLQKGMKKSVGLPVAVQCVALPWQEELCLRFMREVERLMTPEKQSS

In the case of `CC1CCC(NC(=O)Oc2ccc(F)c(-c3cncc(-c4ncco4)c3)c2)CC1` (centres unmarked) [Example 86, 4-fluoro-3-(5-(oxazol-2-yl)pyridin-3-yl)phenyl (4-methylcyclohexyl)carbamate], the pIC50 (human recombinant FAAH) was 7.00 to 8.00 and the pIC50 (human recombinant MAGL) was less than 5.00.
`O=C(NC1CCCCC1)Oc1ccc(OC(F)(F)F)c(-c2cncc(-c3ncco3)c2)c1` [Example 89, 3-(5-(oxazol-2-yl)pyridin-3-yl)-4-(trifluoromethoxy)phenyl cyclohexylcarbamate] showed a pIC50 (human recombinant FAAH) of 6.00 to 7.00 and a pIC50 (human recombinant MAGL) of less than 5.00.
Compound `CC1CCC(NC(=O)Oc2ccc(OC(F)(F)F)c(-c3cncc(-c4ncco4)c3)c2)CC1` (centres unmarked) [Example 90, 3-(5-(oxazol-2-yl)pyridin-3-yl)-4-(trifluoromethoxy)phenyl (4-methylcyclohexyl)carbamate] has a pIC50 (human recombinant FAAH) of 6.00 to 7.00 and a pIC50 (human recombinant MAGL) of less than 6.00.
Compound `CCCCCCCCNC(=O)Oc1cc(-c2cncc(-c3ncco3)c2)ccc1C` [Example 92, 2-methyl-5-(5-(oxazol-2-yl)pyridin-3-yl)phenyl octylcarbamate] has a pIC50 (human recombinant FAAH) of 6.00 to 7.00 and a pIC50 (human recombinant MAGL) of less than 5.00.
For `Cc1ccc(-c2cncc(-c3ncco3)c2)cc1OC(=O)NCC1CCCCC1` [Example 93, 2-methyl-5-(5-(oxazol-2-yl)pyridin-3-yl)phenyl (cyclohexylmethyl)carbamate], the pIC50 (human recombinant FAAH) was less than 6.00 and the pIC50 (human recombinant MAGL) was 5.00 to 6.00.
Compound `Cc1ccc(-c2cncc(-c3ncco3)c2)cc1OC(=O)NCc1ccccc1` [Example 94, 2-methyl-5-(5-(oxazol-2-yl)pyridin-3-yl)phenyl benzylcarbamate] has a pIC50 (human recombinant FAAH) of less than 6.00 and a pIC50 (human recombinant MAGL) of less than 6.00.
Compound `Cc1ccc(-c2cncc(-c3ncco3)c2)cc1OC(=O)NC1CCCCC1` [Example 95, 2-methyl-5-(5-(oxazol-2-yl)pyridin-3-yl)phenyl cyclohexylcarbamate] has a pIC50 (human recombinant FAAH) of less than 6.00 and a pIC50 (human recombinant MAGL) of less than 6.00.
In the case of `Cc1ccc(-c2cncc(-c3ncco3)c2)cc1OC(=O)NC1CCC(C)CC1` (centres unmarked) [Example 96, 2-methyl-5-(5-(oxazol-2-yl)pyridin-3-yl)phenyl (4-methylcyclohexyl)carbamate], the pIC50 (human recombinant FAAH) was less than 6.00 and the pIC50 (human recombinant MAGL) was less than 5.00.
Work on `Cc1ccc(-c2cncc(-c3ncco3)c2)cc1OC(=O)NC1CCCCCC1` [Example 97, 2-methyl-5-(5-(oxazol-2-yl)pyridin-3-yl)phenyl cycloheptylcarbamate] yielded a pIC50 (human recombinant FAAH) of less than 6.00 and a pIC50 (human recombinant MAGL) of less than 6.00.
In the case of `Cc1ccc(-c2cncc(-c3ncco3)c2)cc1OC(=O)NC1CCCCCCC1` [Example 98, 2-methyl-5-(5-(oxazol-2-yl)pyridin-3-yl)phenyl cyclooctylcarbamate], the pIC50 (human recombinant FAAH) was less than 6.00 and the pIC50 (human recombinant MAGL) was roughly 6.00.
In the case of `Cc1cc(OC(=O)NCC2CCCCC2)cc(-c2cncc(-c3ncco3)c2)c1` [Example 99, 3-methyl-5-(5-(oxazol-2-yl)pyridin-3-yl)phenyl (cyclohexylmethyl)carbamate], the pIC50 (human recombinant FAAH) was 6.00 to 7.00 and the pIC50 (human recombinant MAGL) was roughly 5.00.
`Cc1cc(OC(=O)NCc2ccccc2)cc(-c2cncc(-c3ncco3)c2)c1` [Example 100, 3-methyl-5-(5-(oxazol-2-yl)pyridin-3-yl)phenyl benzylcarbamate] was tested, and the pIC50 (human recombinant FAAH) was less than 6.00 and the pIC50 (human recombinant MAGL) was less than 5.00.
`Cc1cc(OC(=O)NC2CCCCC2)cc(-c2cncc(-c3ncco3)c2)c1` [Example 101, 3-methyl-5-(5-(oxazol-2-yl)pyridin-3-yl)phenyl cyclohexylcarbamate] gave a pIC50 (human recombinant FAAH) of less than 6.00 and a pIC50 (human recombinant MAGL) of less than 5.00.
With `Cc1cc(OC(=O)NC2CCC(C)CC2)cc(-c2cncc(-c3ncco3)c2)c1` (centres unmarked) [Example 102, 3-methyl-5-(5-(oxazol-2-yl)pyridin-3-yl)phenyl (4-methylcyclohexyl)carbamate] the pIC50 (human recombinant FAAH) was less than 6.00 and the pIC50 (human recombinant MAGL) was less than 5.00.
`Cc1cc(OC(=O)NC2CCCCCC2)cc(-c2cncc(-c3ncco3)c2)c1` [Example 103, 3-methyl-5-(5-(oxazol-2-yl)pyridin-3-yl)phenyl cycloheptylcarbamate] was tested, and the pIC50 (human recombinant FAAH) was 6.00 to 7.00 and the pIC50 (human recombinant MAGL) was roughly 5.00.
With `Cc1cc(OC(=O)NC2CCCCCCC2)cc(-c2cncc(-c3ncco3)c2)c1` [Example 104, 3-methyl-5-(5-(oxazol-2-yl)pyridin-3-yl)phenyl cyclooctylcarbamate] the pIC50 (human recombinant FAAH) was 6.00 to 7.00 and the pIC50 (human recombinant MAGL) was roughly 5.00.
Compound `CCCCCCCCNC(=O)Oc1cccc(-c2cncc(-c3ccno3)c2)c1` [Example 105, 3-(5-(isoxazol-5-yl)pyridin-3-yl)phenyl octylcarbamate] has a pIC50 (human recombinant FAAH) of 8.00 to 9.00 and a pIC50 (human recombinant MAGL) of less than 5.00.
`O=C(NC1CCCC1)Oc1cccc(-c2cncc(-c3ccno3)c2)c1` [Example 106, 3-(5-(isoxazol-5-yl)pyridin-3-yl)phenyl cyclopentylcarbamate] gave a pIC50 (human recombinant FAAH) of 7.00 to 8.00 and a pIC50 (human recombinant MAGL) of less than 5.00.
`O=C(NC1CCCCC1)Oc1cccc(-c2cncc(-c3ccno3)c2)c1` [Example 107, 3-(5-(isoxazol-5-yl)pyridin-3-yl)phenyl cyclohexylcarbamate] gave a pIC50 (human recombinant FAAH) of 7.00 to 8.00 and a pIC50 (human recombinant MAGL) of less than 5.00.
For `O=C(NC1CCCCCC1)Oc1cccc(-c2cncc(-c3ccno3)c2)c1` [Example 108, 3-(5-(isoxazol-5-yl)pyridin-3-yl)phenyl cycloheptylcarbamate], the pIC50 (human recombinant FAAH) was 7.00 to 8.00 and the pIC50 (human recombinant MAGL) was less than 6.00.
Compound `CCCCCCCCNC(=O)Oc1ccc(OC)c(-c2cncc(-c3ccno3)c2)c1` [Example 109, 3-(5-(isoxazol-5-yl)pyridin-3-yl)-4-methoxyphenyl octylcarbamate] has a pIC50 (human recombinant FAAH) of 8.00 to 9.00 and a pIC50 (human recombinant MAGL) of roughly 5.00.
`COc1ccc(OC(=O)NCC2CCCCC2)cc1-c1cncc(-c2ccno2)c1` [Example 110, 3-(5-(isoxazol-5-yl)pyridin-3-yl)-4-methoxyphenyl (cyclohexylmethyl)carbamate] showed a pIC50 (human recombinant FAAH) of 7.00 to 8.00 and a pIC50 (human recombinant MAGL) of roughly 5.00.
Work on `COc1ccc(OC(=O)NCc2ccccc2)cc1-c1cncc(-c2ccno2)c1` [Example 111, 3-(5-(isoxazol-5-yl)pyridin-3-yl)-4-methoxyphenyl benzylcarbamate] yielded a pIC50 (human recombinant FAAH) of 6.00 to 7.00 and a pIC50 (human recombinant MAGL) of less than 5.00.
`COc1ccc(OC(=O)NC2CCCC2)cc1-c1cncc(-c2ccno2)c1` [Example 112, 3-(5-(isoxazol-5-yl)pyridin-3-yl)-4-methoxyphenyl cyclopentylcarbamate] was tested, and the pIC50 (human recombinant FAAH) was roughly 7.00 and the pIC50 (human recombinant MAGL) was less than 5.00.
`COc1ccc(OC(=O)NC2CCCCC2)cc1-c1cncc(-c2ccno2)c1` [Example 113, 3-(5-(isoxazol-5-yl)pyridin-3-yl)-4-methoxyphenyl cyclohexylcarbamate] was tested, and the pIC50 (human recombinant FAAH) was roughly 7.00 and the pIC50 (human recombinant MAGL) was less than 5.00.
`CCCCCCCCNC(=O)Oc1cccc(-c2cncc(-c3nccs3)c2)c1` [Example 115] showed a pIC50 (human recombinant FAAH) of 8.00 to 9.00 and a pIC50 (human recombinant MAGL) of roughly 5.00.
Compound `O=C(NCC1CCCCC1)Oc1cccc(-c2cncc(-c3nccs3)c2)c1` [Example 116, 3-(5-(thiazol-2-yl)pyridin-3-yl)phenyl (cyclohexylmethyl)carbamate] has a pIC50 (human recombinant FAAH) of 7.00 to 8.00 and a pIC50 (human recombinant MAGL) of roughly 5.00.
Work on `O=C(NCc1ccccc1)Oc1cccc(-c2cncc(-c3nccs3)c2)c1` [Example 117, 3-(5-(thiazol-2-yl)pyridin-3-yl)phenyl benzylcarbamate] yielded a pIC50 (human recombinant FAAH) of 6.00 to 7.00 and a pIC50 (human recombinant MAGL) of less than 5.00.
`O=C(NC1CCCC1)Oc1cccc(-c2cncc(-c3nccs3)c2)c1` [Example 118, 3-(5-(thiazol-2-yl)pyridin-3-yl)phenyl cyclopentylcarbamate] was tested, and the pIC50 (human recombinant FAAH) was roughly 7.00 and the pIC50 (human recombinant MAGL) was less than 5.00.
For `O=C(NC1CCCCC1)Oc1cccc(-c2cncc(-c3nccs3)c2)c1` [Example 119, 3-(5-(thiazol-2-yl)pyridin-3-yl)phenyl cyclohexylcarbamate], the pIC50 (human recombinant FAAH) was 7.00 to 8.00 and the pIC50 (human recombinant MAGL) was less than 5.00.
For `O=C(NC1CCCCCC1)Oc1cccc(-c2cncc(-c3nccs3)c2)c1` [Example 120, 3-(5-(thiazol-2-yl)pyridin-3-yl)phenyl cycloheptylcarbamate], the pIC50 (human recombinant FAAH) was 7.00 to 8.00 and the pIC50 (human recombinant MAGL) was roughly 5.00.
`CCCCCCCCNC(=O)Oc1ccc(OC)c(-c2cncc(-c3nccs3)c2)c1` [Example 121, 4-methoxy-3-(5-(thiazol-2-yl)pyridin-3-yl)phenyl octylcarbamate] gave a pIC50 (human recombinant FAAH) of 7.00 to 8.00 and a pIC50 (human recombinant MAGL) of roughly 5.00.
In the case of `COc1ccc(OC(=O)NCC2CCCCC2)cc1-c1cncc(-c2nccs2)c1` [Example 122, 4-methoxy-3-(5-(thiazol-2-yl)pyridin-3-yl)phenyl (cyclohexylmethyl)carbamate], the pIC50 (human recombinant FAAH) was 6.00 to 7.00 and the pIC50 (human recombinant MAGL) was roughly 5.00.
`COc1ccc(OC(=O)NCc2ccccc2)cc1-c1cncc(-c2nccs2)c1` [Example 123, 4-methoxy-3-(5-(thiazol-2-yl)pyridin-3-yl)phenyl benzylcarbamate] was tested, and the pIC50 (human recombinant FAAH) was roughly 6.00 and the pIC50 (human recombinant MAGL) was less than 5.00.
`COc1ccc(OC(=O)NC2CCCC2)cc1-c1cncc(-c2nccs2)c1` [Example 124, 4-methoxy-3-(5-(thiazol-2-yl)pyridin-3-yl)phenyl cyclopentylcarbamate] was tested, and the pIC50 (human recombinant FAAH) was 6.00 to 7.00 and the pIC50 (human recombinant MAGL) was less than 5.00.
With `COc1ccc(OC(=O)NC2CCCCC2)cc1-c1cncc(-c2nccs2)c1` [Example 125, 4-methoxy-3-(5-(thiazol-2-yl)pyridin-3-yl)phenyl cyclohexylcarbamate] the pIC50 (human recombinant FAAH) was 6.00 to 7.00 and the pIC50 (human recombinant MAGL) was less than 5.00.
`COc1ccc(OC(=O)NC2CCCCCC2)cc1-c1cncc(-c2nccs2)c1` [Example 126, 4-methoxy-3-(5-(thiazol-2-yl)pyridin-3-yl)phenyl cycloheptylcarbamate] was tested, and the pIC50 (human recombinant FAAH) was 6.00 to 7.00 and the pIC50 (human recombinant MAGL) was less than 5.00.
`O=C(NCC1CCCCC1)Oc1cccc(-c2cncc(-c3nnco3)c2)c1` [Example 134, 3-(5-(1,3,4-oxadiazol-2-yl)pyridin-3-yl)phenyl (cyclohexylmethyl)carbamate] gave a pIC50 (human recombinant FAAH) of 7.70 to 8.00 and a pIC50 (human recombinant MAGL) of less than 5.00.
`O=C(NCc1ccccc1)Oc1cccc(-c2cncc(-c3nnco3)c2)c1` [Example 135, 3-(5-(1,3,4-oxadiazol-2-yl)pyridin-3-yl)phenyl benzylcarbamate] showed a pIC50 (human recombinant FAAH) of less than 7.00 and a pIC50 (human recombinant MAGL) of less than 4.30.
Work on `O=C(NCCCc1ccccc1)Oc1cccc(-c2cncc(-c3nnco3)c2)c1` [Example 136, 3-(5-(1,3,4-oxadiazol-2-yl)pyridine-3-yl)phenyl (3-phenylpropyl)carbamate] yielded a pIC50 (human recombinant FAAH) of 7.00 to 8.00 and a pIC50 (human recombinant MAGL) of 4.30 to 5.00.
